Source: patent publication US12043632B2, “6-heteroaryloxy benzimidazoles and azabenzimidazoles as JAK2 inhibitors” (Ajax Therapeutics, Inc., priority 2020, dated 2024)

What follows are compounds tested against T1, JAK2 (JH1domain-catalytic, Y1007F,Y1008F) kinase (Homo sapiens, UniProt O60674, Y1007F/Y1008F) (assay: JAK2 JH1 Domain Binding Assay). Conditions: qPCR readout.
T1 construct: JAK2 (JH1domain-catalytic, Y1007F,Y1008F) kinase was expressed as N-terminal fusion; made in house; host or cells: transiently transfected HEK293 cells
T1 sequence (O60674 849-1124 Y1007F/Y1008F limits assumed): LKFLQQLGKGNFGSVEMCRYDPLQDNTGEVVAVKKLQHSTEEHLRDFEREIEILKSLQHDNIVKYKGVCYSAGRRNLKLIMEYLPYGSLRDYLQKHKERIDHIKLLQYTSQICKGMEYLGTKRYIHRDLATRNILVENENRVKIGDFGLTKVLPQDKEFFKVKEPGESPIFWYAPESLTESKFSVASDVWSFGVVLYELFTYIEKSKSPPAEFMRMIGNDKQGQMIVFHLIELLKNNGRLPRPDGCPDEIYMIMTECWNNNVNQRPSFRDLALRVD

Row | Kd [nM] | SMILES
1 | 10 to 50 | CNc1nccn2ncc(Oc3cnc4nc(Nc5cc(C(F)(F)F)cn([C@@H]6CCCOC6)c5=O)n(C)c4c3Cl)c12 (single isomer, unassigned) [Example I-245-b]
2 | < 10 | CNc1nccn2ncc(Oc3cnc4nc(Nc5cc(C(F)(F)F)cn([C@H]6CCOC6)c5=O)n(C)c4c3Cl)c12 (single isomer, unassigned) [Example I-262-a]
3 | < 10 | CNc1nccn2ncc(Oc3cnc4nc(Nc5cc(C(F)(F)F)cn([C@@H]6CCOC6)c5=O)n(C)c4c3Cl)c12 (single isomer, unassigned) [Example I-262-b]
4 | 10 to 50 | CN1C[C@@H](F)[C@H](n2nc(Nc3nc4ncc(Oc5cnn6ccncc56)c(Cl)c4n3C)cc2C(C)(C)C)C1 (single isomer, unassigned) [Example I-267-a]
5 | 50 to 1000 | CN1C[C@H](F)[C@@H](n2nc(Nc3nc4ncc(Oc5cnn6ccncc56)c(Cl)c4n3C)cc2C(C)(C)C)C1 (single isomer, unassigned) [Example I-267-b]
6 | 10 to 50 | CNc1nccn2ncc(Oc3cnc4nc(Nc5cc(C6CCCN6C)cc(C(F)(F)F)c5)n(C)c4c3Cl)c12 (single isomer, unassigned) [Example I-269-a]
7 | 10 to 50 | CNc1nccn2ncc(Oc3cnc4nc(Nc5cc(C6CCCN6C)cc(C(F)(F)F)c5)n(C)c4c3Cl)c12 (single isomer, unassigned) [Example I-269-b]
8 | < 10 | CN1CCC[C@@H]1c1cc(Nc2nc3ncc(Oc4cnn5ccncc45)c(Cl)c3n2C)cc(C(F)(F)F)c1 (single isomer, unassigned) [Example I-270-a]
9 | < 10 | CN1CCC[C@H]1c1cc(Nc2nc3ncc(Oc4cnn5ccncc45)c(Cl)c3n2C)cc(C(F)(F)F)c1 (single isomer, unassigned) [Example I-270-b]
10 | < 10 | CNc1nccn2ncc(Oc3cnc4nc(Nc5cc(C(F)(F)F)n([C@H]6COC[C@@H]6O)n5)n(C)c4c3Cl)c12 (single isomer, unassigned) [Example I-279-a]
11 | < 10 | CNc1nccn2ncc(Oc3cnc4nc(Nc5cc(C(F)(F)F)n([C@@H]6COC[C@H]6O)n5)n(C)c4c3Cl)c12 (single isomer, unassigned) [Example I-279-b]
12 | 10 to 50 | CNc1nccn2ncc(Oc3cnc4nc(Nc5cc([C@@H]6CCOC6)nc(C(F)(F)F)c5)n(C)c4c3Cl)c12 (single isomer, unassigned) [Example I-280-a]
13 | 10 to 50 | CNc1nccn2ncc(Oc3cnc4nc(Nc5cc([C@H]6CCOC6)nc(C(F)(F)F)c5)n(C)c4c3Cl)c12 (single isomer, unassigned) [Example I-280-b]
14 | < 10 | CNc1cn2ncc(Oc3cnc4nc(Nc5cc(C(F)(F)F)cn([C@H]6CCOC6)c5=O)n(C)c4c3Cl)c2cn1 (single isomer, unassigned) [Example I-305]
15 | 10 to 50 | CNc1cn2ncc(Oc3cnc4nc(Nc5cc(C(F)(F)F)cn([C@@H]6CCOC6)c5=O)n(C)c4c3Cl)c2cn1 (single isomer, unassigned) [Example I-306]
16 | < 10 | CN1CCCC1c1ccc(Nc2nc3ncc(Oc4cnn5ccncc45)c(Cl)c3n2C)cc1C(F)(F)F (single isomer, unassigned) [Example I-343]
17 | < 10 | CN1CCC[C@@H]1c1ccc(Nc2nc3ncc(Oc4cnn5ccncc45)c(Cl)c3n2C)cc1C(F)(F)F (single isomer, unassigned) [Example I-344]
18 | < 10 | CN1CCCCC1COc1cc(Nc2nc3ncc(Oc4cnn5ccncc45)c(Cl)c3n2C)cc(C(F)(F)F)c1 (single isomer, unassigned) [Example I-350-a]
19 | < 10 | CN1CCCCC1COc1cc(Nc2nc3ncc(Oc4cnn5ccncc45)c(Cl)c3n2C)cc(C(F)(F)F)c1 (single isomer, unassigned) [Example I-350-b]
20 | 10 to 50 | CNc1cn2ncc(Oc3cnc4nc(Nc5cc(C(F)(F)F)cn([C@H]6CCCOC6)c5=O)n(C)c4c3Cl)c2cn1 (single isomer, unassigned) [Example I-352-a]
21 | 10 to 50 | CNc1cn2ncc(Oc3cnc4nc(Nc5cc(C(F)(F)F)cn([C@@H]6CCCOC6)c5=O)n(C)c4c3Cl)c2cn1 (single isomer, unassigned) [Example I-352-b]
22 | 50 to 1000 | CNc1cn2ncc(Oc3cnc4nc(Nc5cc([C@H]6CCCN6C)cc(C(F)(F)F)c5)n(C)c4c3Cl)c2cn1 (single isomer, unassigned) [Example I-359-a]
23 | 50 to 1000 | CNc1cn2ncc(Oc3cnc4nc(Nc5cc([C@@H]6CCCN6C)cc(C(F)(F)F)c5)n(C)c4c3Cl)c2cn1 (single isomer, unassigned) [Example I-359-b]
24 | < 10 | CN(C)C1CCN(Cc2cc(Nc3nc4ncc(Oc5cnn6ccncc56)c(Cl)c4n3C)cc(C(F)(F)F)c2)C1 (stereo in doubt) [Example I-272, (R)-7-chloro-N-(3-((3-(dimethylamino)pyrrolidin-1-yl)methyl)-5-(trifluoromethyl)phenyl)-1-methyl-6-(pyrazolo[1,5-a]pyrazin-3-yloxy)-1H-imidazo[4,5-b]pyridin-2-amine]

Continued, compound first:

Row | SMILES | Kd [nM]
25 | COc1c(Oc2cnn3ccccc23)cnc2nc(Nc3cc(C4CC4)cn([C@@H]4CC[C@H]4O)c3=O)n(C)c12 (single isomer, unassigned) [Example I-122-a] | < 10
26 | COc1c(Oc2cnn3ccccc23)cnc2nc(Nc3cc(C4CC4)cn([C@H]4CC[C@@H]4O)c3=O)n(C)c12 (single isomer, unassigned) [Example I-122-b] | < 10
27 | COc1c(Oc2cnn3ccccc23)cnc2nc(Nc3cc(C4CC4)cn([C@@H]4CC[C@@H]4O)c3=O)n(C)c12 (single isomer, unassigned) [Example I-131-a] | < 10
28 | COc1c(Oc2cnn3ccccc23)cnc2nc(Nc3cc(C4CC4)cn([C@H]4CC[C@H]4O)c3=O)n(C)c12 (single isomer, unassigned) [Example I-131-b] | 10 to 50
29 | Cn1cc(C2CC2)cc(Nc2nc3ncc(Oc4cnn5ccnc(O[C@@H]6CC[C@H]6O)c45)c(Cl)c3n2C)c1=O (single isomer, unassigned) [Example I-133-a] | < 10
30 | Cn1cc(C2CC2)cc(Nc2nc3ncc(Oc4cnn5ccnc(O[C@H]6CC[C@@H]6O)c45)c(Cl)c3n2C)c1=O (single isomer, unassigned) [Example I-133-b] | < 10
31 | Cn1cc(C(F)(F)F)cc(Nc2nc3ncc(Oc4cnn5ccnc(O[C@@H]6CC[C@H]6O)c45)c(Cl)c3n2C)c1=O (single isomer, unassigned) [Example I-139-a] | < 10
32 | Cn1cc(C(F)(F)F)cc(Nc2nc3ncc(Oc4cnn5ccnc(O[C@H]6CC[C@@H]6O)c45)c(Cl)c3n2C)c1=O (single isomer, unassigned) [Example I-139-b] | < 10
33 | Cn1c(Nc2cc(C(C)(C)C)n([C@H]3CC[C@H]3O)n2)nc2ncc(Oc3cnn4ccncc34)c(Cl)c21 (single isomer, unassigned) [Example I-147-a] | < 10
34 | Cn1c(Nc2cc(C(C)(C)C)n([C@@H]3CC[C@@H]3O)n2)nc2ncc(Oc3cnn4ccncc34)c(Cl)c21 (single isomer, unassigned) [Example I-147-b] | < 10
35 | Cn1c(Nc2cc(C3CC3)nn([C@@H]3CCCOC3)c2=O)nc2ncc(Oc3cnn4ccccc34)c(Cl)c21 (single isomer, unassigned) [Example I-148-a] | < 10
36 | Cn1c(Nc2cc(C3CC3)nn([C@H]3CCCOC3)c2=O)nc2ncc(Oc3cnn4ccccc34)c(Cl)c21 (single isomer, unassigned) [Example I-148-b] | 10 to 50
37 | Cn1c(Nc2cc(C(C)(C)C)n([C@H]3COC[C@@H]3O)n2)nc2ncc(Oc3cnn4ccncc34)c(C#N)c21 (single isomer, unassigned) [Example I-150-a] | 10 to 50
38 | Cn1c(Nc2cc(C(C)(C)C)n([C@@H]3COC[C@H]3O)n2)nc2ncc(Oc3cnn4ccncc34)c(C#N)c21 (single isomer, unassigned) [Example I-150-b] | 10 to 50
39 | CNc1nccn2ncc(Oc3cnc4nc(Nc5cc(C(F)(F)F)cn([C@H]6CCCOC6)c5=O)n(C)c4c3Cl)c12 (single isomer, unassigned) [Example I-245-a] | < 10
40 | COCCN1CCC(n2nc(Nc3nc4ncc(Oc5cnn6ccncc56)c(C(F)F)c4n3C)cc2C(C)(C)C)C1 (stereo in doubt) [Example I-52, (S)—N-(5-(tert-butyl)-1-(1-(2-methoxyethyl)pyrrolidin-3-yl)-1H-pyrazol-3-yl)-7-(difluoromethyl)-1-methyl-6-(pyrazolo[1,5-a]pyrazin-3-yloxy)-1H-imidazo[4,5-b]pyridin-2-amine] | 10 to 50
41 | Cn1c(Nc2cc(C(F)(F)F)cn([C@H]3C[C@H](O)C3)c2=O)nc2ncc(Oc3cnn4ccncc34)c(Cl)c21 (stereo in doubt) [Example I-89, trans-3-((7-chloro-1-methyl-6-(pyrazolo[1,5-a]pyrazin-3-yloxy)-1H-imidazo[4,5-b]pyridin-2-yl)amino)-1-(3-hydroxycyclobutyl)-5-(trifluoromethyl)pyridin-2(1H)-one] | < 10
42 | Cn1c(Nc2ccc(CN3CCC(O)C3)c(C(F)(F)F)c2)nc2ncc(Oc3cnn4ccncc34)c(Cl)c21 (stereo in doubt) [Example I-185, (S)-1-(4-((7-chloro-1-methyl-6-(pyrazolo[1,5-a]pyrazin-3-yloxy)-1H-imidazo[4,5-b]pyridin-2-yl)amino)-2-(trifluoromethyl)benzyl)pyrrolidin-3-ol] | < 10
43 | Cn1c(Nc2ccc(CN3CCC(O)C3)c(C(F)(F)F)c2)nc2ncc(Oc3cnn4ccncc34)c(Cl)c21 (stereo in doubt) [Example I-186, (R)-1-(4-((7-chloro-1-methyl-6-(pyrazolo[1,5-a]pyrazin-3-yloxy)-1H-imidazo[4,5-b]pyridin-2-yl)amino)-2-(trifluoromethyl)benzyl)pyrrolidin-3-ol] | < 10
44 | Cn1c(Nc2cc(N3CCC(O)C3)cc(C(F)(F)F)c2)nc2ncc(Oc3cnn4ccncc34)c(Cl)c21 (stereo in doubt) [Example I-239, (S)-1-(3-((7-chloro-1-methyl-6-(pyrazolo[1,5-a]pyrazin-3-yloxy)-1H-imidazo[4,5-b]pyridin-2-yl)amino)-5-(trifluoromethyl)phenyl)pyrrolidin-3-ol] | < 10
